Experimental data: patent publication US20220079931A1, “ESTROGEN RECEPTOR PROTEIN DEGRADERS” (THE REGENTS OF THE UNIVERSITY OF MICHIGAN, priority 2019, published 2022)

Columns and labels:
VHL-ElonginBC complex = target: T1, VHL-ElonginBC complex (Homo sapiens, UniProt P40337); assay: Fluorescence-polarization (FP) competitive binding assay for VHL; settings: VHL ligands; VHL-ElonginBC complex and fluorescent probe both 5 nM; read-out: FP Binding affinity IC50
T1 construct: His-TEV (His-tag with TEV protease site) (cleaved yes); made in house; host or cells: E. coli BL21(DE3)
Description: Cloning and Purification of VHL-ElonginBC complex. The DNA sequence of VHL (coding for residues 54-213) was constructed by PCR and inserted into a His-TEV expression vector^58 using ligation-independent cloning. The DNA sequences of Elongin B (encoding residues 1-118) and Elongin C (encoding residues 1-96) were constmcted by PCR and inserted into pCDFDuet 1 using Gibson assembly.^59 BL21(DE3) cells were transformed simultaneously with both plasmids and grown in Terrific Broth at 37° C. until an OD600 of 1.2. The cells were induced overnight with 0.4 mM IPTG at 24° C. Pelleted cells were freeze-thawed then resuspended in 20 mM Tris HCl pH7.0, 200 mM NaCl and 0.1% β-mercaptoethanol (bME) containing protease inhibitors. The cell suspension was lysed by sonication and debris removed via centrifugation. The supernatant was incubated at 4° C. for 1 hr with Ni-NTA (Qiagen) pre-washed in 20 mM Tris-HCl pH 7.0, 200 mM NaCl and 10 mM Imidazole. The protein complex was eluted in 20 mM Tris-HCl pH 7.0, 200 mM NaCl and 300 mM Imidazole, dialyzed into 20 mM Tris-HCl pH 7.0, 150 mM NaCl, and 0.01% bME and incubated with TEV protease overnight at 4° C. The protein sample was reapplied to the Ni-NTA column to remove the His-tag. The flow through containing the VHL complex was diluted to 75 mM NaCl and applied to a HiTrap Q column (GE Healthcare). The sample was eluted with a salt gradient (0.075-1 M NaCl), concentrated and further purified on a Superdex S75 column (GE Healthcare) pre-equilibrated with 20 mM Bis-Tris 7.0, 150 mM NaCl and 1 mM DTT. Samples were aliquoted and stored at −80° C.
Binding Affinities of VHL ligands to VHL. A fluorescence-polarization (FP) competitive assay was established using VHL-ElonginBC complex and a fluorescently tagged probe (SI). The IC50 and Ki values of VHL ligands were determined in competitive binding experiments. Mixtures of 5 μL of compounds in DMSO and 95 μL of preincubated protein/tracer complex solution were added into assay plates which were incubated at rt for 60 min with gentle shaking. Final concentrations of VHL-ElonginBC complex and fluorescent probe were both 5 nM. Negative controls containing protein/probe complex only (equivalent to 0% inhibition) and positive controls containing only free probes (equivalent to 100% inhibition) were included in each assay plate. FP values in millipolarization units (mP) were measured using the Infinite M-1000 plate reader (Tecan U.S., Research Triangle Park, N.C.) in Microfluor 1 96-well, black, round-bottom plates (Thermo Scientific, Waltham, Mass.) at an excitation wavelength of 485 nm and an emission wavelength of 530 nm. IC50 values were determined by nonlinear regression fitting of the competition curves. Ki values of competitive inhibitors were obtained directly by nonlinear regression fitting, based upon the KD values of the probe and concentrations of the protein and probe in the competitive assays. All the FP competitive experiments were performed in duplicate in three independent experiments.

MCF-7 cells = assay: WST-8 cell proliferation assay in MCF-7 cells; type: cell-based, human; settings: MCF-7 cells, WST-8, 4 days
Description: (§1) Cell Culture. Human breast cancer cell lines MCF-7 (ATCC® HTB-22™) and T47D (ATCC® HTB-133™) were purchased from the American Type Culture Collection (ATCC), Manassas, Va., and maintained and cultured in Dulbecco's Modified Eagle's medium (DMEM) containing 10% fetal bovine serum, 1 unit/ml of penicillin and 1 μg/ml of streptomycin. Cells with 3-8 passages after purchase were used in experiments as indicated.
Cell Growth Assay. Cells were seeded at 1500/well in 96 well plates overnight. One day after seeding, they were treated with indicated doses of compounds. The growth of the cells was evaluated by colorimetric WST-8 assay 4 days after the compound treatment following the instructions of the manufacturer, Cayman Chemical, Ann Arbor, Mich.
Fulvestrant achieves an Imax value of 43.8%. […] RAD1901, a previously reported SERD molecule^18, achieves an Imax value of 25.7%.

[1] = background statement; cited from earlier work
[2] = background statement; cited from earlier work; remark: listed apart in the source
ERα [3] = target: T2, ERα (Homo sapiens, UniProt P03372); assay: ER degradation by Western blotting in MCF-7 cells; type: cell-based; parameters: host or cells: MCF-7; settings: 30 nM
T2 sequence (P03372 1-595): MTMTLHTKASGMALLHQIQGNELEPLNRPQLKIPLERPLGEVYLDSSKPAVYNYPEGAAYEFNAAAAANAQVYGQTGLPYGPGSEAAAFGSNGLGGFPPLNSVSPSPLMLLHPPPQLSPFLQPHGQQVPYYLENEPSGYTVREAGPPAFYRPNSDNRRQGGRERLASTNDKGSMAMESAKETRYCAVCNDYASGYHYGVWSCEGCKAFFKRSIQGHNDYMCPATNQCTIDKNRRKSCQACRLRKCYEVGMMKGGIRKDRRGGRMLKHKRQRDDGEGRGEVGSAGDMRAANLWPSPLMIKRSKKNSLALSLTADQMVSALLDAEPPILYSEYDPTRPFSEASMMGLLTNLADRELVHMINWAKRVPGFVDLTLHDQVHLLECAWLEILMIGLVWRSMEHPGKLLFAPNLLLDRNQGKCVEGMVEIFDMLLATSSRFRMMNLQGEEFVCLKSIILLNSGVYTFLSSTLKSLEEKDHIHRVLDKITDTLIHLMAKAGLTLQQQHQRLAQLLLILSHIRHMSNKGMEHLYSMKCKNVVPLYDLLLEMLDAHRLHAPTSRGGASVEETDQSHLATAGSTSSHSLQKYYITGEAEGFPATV
Description: FIG. 1 is an image showing the Western blotting analysis of ER protein in MCF-7 cells treated with Compounds of the Disclosure and control compounds. Cells were treated with different compounds for 4 h and whole cell lysates were then analyzed by Western blotting to examine the level of ER protein. GADPH protein was used for the loading control. The numbers below the panel represent the ERα/GADPH ratio normalized with the DMSO control at 100.
FIG. 2 is an image showing the Western blotting analysis of ER protein in the MCF-7 cells treated with indicated compounds at 1 nM, 10 nM and 100 nM. MCF-7 cells were treated with different compounds for 4 h and whole cell lysates were analyzed by Western blotting to examine the level of ER protein. GADPH protein was used for the loading control. The numbers below the panel represent the ERα/GADPH ratio normalized with the DMSO control at 100.
FIG. 7 is an image showing the ERα degradation dose-response Western blotting for compound 32 at 4 h in MCF-7 cells.
FIG. 9 is an image showing the time course of ERα degradation by Western blotting by compound 32 (30 nM) and fulvestrant (30 nM) in the MCF-7 cells.
as §1
(§2) Western Blot Analysis. Western blot analysis was performed essentially as described previously (Hu et al, 2015, PMID: 26358219). Cells treated with indicated compounds were lysed in Radioimmunoprecipitation Assay Protein Lysis and Extraction Buffer (25 mmol/L Tris.HCl, pH 7.6, 150 mmol/L NaCl, 1% Nonidet P-40, 1% sodium deoxycholate, and 0.1% sodium dodecyl sulfate) containing proteinase inhibitor cocktail (Roche Diagnostics, Mannheim, Germany). After determination of protein concentration by BCA assay (Fisher Scientific, Pittsburgh, Pa.), equal amounts of total protein were electrophoresed through 10% SDS-polyacrylamide gels. The separated protein bands were transferred onto PVDF membranes (GE Healthcare Life Sciences, Marlborough, Mass.) and blotted against different antibodies, as indicated. The human estrogen receptor a antibodies (AB16460) were purchased from Abeam, Inc., Cambridge, Mass. The membranes were reblotted with horseradish peroxidase-conjugated anti-glyceraldehyde-3-phosphate dehydrogenase antibody (G9295) from Sigma-Aldrich Corporation, St. Louis, Mo. The blots were scanned and the band intensities were quantified using GelQuant.NET software as described in biochemlabsolutions.com. The relative mean intensity of target proteins was expressed after normalization to the intensity of glyceraldehyde-3-phosphate dehydrogenase bands from individual repeats.

ERα [4] = target: T2, ERα; assay: Mechanism of ER degradation: pretreatment with VHL ligand, ER ligand or proteasome inhibitor, Western blotting in MCF-7 cells; type: cell-based; parameters: host or cells: MCF-7; settings: 1 μM, alone
Description: (§3) Then whole-cell lysates were analyzed by Western blotting.
as §3
as §2, with “Western blot analysis was performed essentially as described previously (Hu et al, 2015, PMID: 26358219).” left out

| SMILES | IC50 (VHL-ElonginBC complex) | maximum inhibition (Imax) (MCF-7 cells) | further results |
| --- | --- | --- | --- |
| CC(=O)N[C@H](C(=O)N1C[C@H](O)C[C@H]1C(=O)N[C@@H](C)c1ccc(-c2scnc2C)cc1)C(C)(C)C [compound 11, (2S,4R)-1-((S)-2-Acetamido-3,3-dimethylbutanoyl)-4-hydroxy-N—((S)-1-(4-(4-methylthiazol-5-yl)phenyl)ethyl)pyrrolidine-2-carboxamide, reference compound] | 0.196 ± 0.006 µM | – | – |
| O=C(c1ccc(OCCN2CCCCC2)cc1)c1c(-c2ccc(O)cc2)sc2cc(O)ccc12 [raloxifene] | – | 34.0% | – |
| CCNCCc1ccc(CN(CC)c2cc(OC)ccc2[C@@H]2CCc3cc(O)ccc3C2)cc1 [RAD1901] | – | 25.7% | – |
| C[C@]12CC[C@@H]3c4ccc(O)cc4C[C@@H](CCCCCCCCC[S+]([O-])CCCC(F)(F)C(F)(F)F)[C@H]3[C@@H]1CC[C@@H]2O (stereo partly shown) [fulvestrant] | – | 43.8% | solubility [1]: poor solubility; oral bioavailability [2]: not orally bioavailable; reduction of ER protein level at 1 h (ERα [3]; 1 h treatment): only a modest effect; maximum ER degradation in time course (ERα [3]; after a 24 h treatment): approximately 90% |
| CC(=O)N[C@H](C(=O)N1C[C@H](O)C[C@H]1C(=O)N[C@@H](C)c1ccc(C2CC2)cc1)C(C)(C)C [46a, (2S,4R)-1-((S)-2-acetamido-3,3-dimethylbutanoyl)-N—((S)-1-(4-cyclopropylphenyl)ethyl)-4-hydroxypyrrolidine-2-carboxamide] | 6.11 ± 0.82 µM | – | – |
| CC(C)C[C@H](NC(=O)[C@H](CCc1ccccc1)NC(=O)CN1CCOCC1)C(=O)N[C@@H](Cc1ccccc1)C(=O)N[C@@H](CC(C)C)C(=O)[C@@]1(C)CO1 [carfilzomib, reference compound] | – | – | effect alone on ER protein levels (ERα [4]): no effect |
